Patent publication US11291624B2, “Compositions comprising active botanical ingredients” (CONOPCO, INC., priority 2018, dated 2022)

Test system: MelaKuits reconstructed human pigmented LSE model
Assay: Inhibition of melanin in a living skin-equivalent (LSE) model
Format: cell-based
Settings: for Melanin content as % of control: UVB-exposed pigmented LSE, the lower the better
Description: Details of the test are as follows:
Materials: • MelaKuits®, a reconstructed human pigmented LSE model, derived from 3D culture of normal human epidermal keratinocytes and melanocytes from Asian donors.
The pigmented LSE model was exposed to UVB (50 mJ/cm^2) for seven consecutive days day at periodic intervals of 24 hours to stimulate the synthesis of melanin. The extracts were applied topically on each LSE model on day 4 and day 6 with an interval of 48 hours for refreshing. For comparison, a blank experiment was carried out in which the LSE was neither exposed to UV radiation nor was any extract applied thereon. A control experiment was also carried out in which the LSE model was exposed to UV radiation, but no other treatment was followed.
On day 8, the appearance of each LSE model was assessed by photographing them. Thereafter, all the models subjected to the test were separated from their respective inserts and placed on a white plastic plate with the stratum corneum side facing up. The luminance (L*) value was read using a spectrophotometer CM700 (Konica-Minolta). For each model, the luminance was measured thrice, and the mean value was calculated for comparison.

| Compound | Melanin content as % of control (2.5 μM) | Melanin content as % of control (75 μM, topical on day 4 and day 6, read on day 8) | Effectiveness in reducing melanin content, in words (positive control, Table 2) |
| --- | --- | --- | --- |
| CC1(C)C=Cc2c(ccc3c2OC[C@@H](c2ccc(O)cc2O)C3)O1 [Glabridin] | 97.1 % of control |  |  |
| O=c1cc(CO)occ1O [Kojic acid] |  | 77.4 % of control | most effective ingredient |
